Test [1] has as its target T1, PARP1 (His6-PARP1, full length) (Homo sapiens, UniProt P09874).
T1 construct: His6-PARP1 (full length)
Description: μHTS-TNKS-IWR2 TR-FRET binding assay with His6-PARP1 in place of TNKS1. The conditions noted are these: Table I. The protocol:
(§1) μHTS-TNKS-IWR2TR-FRET Binding Assay
(§2) (10 μL/well in BD1536-well plate, a single point)
(§3) Alternatively, in place of His6-TNKS1 can use either His6-tankyrase 2 (construct: 934-1166) (His6-TNKS2) or His6-PARP1 (full length).
(§4) Biotin-IWR2: 10 mM Biotin-IWR2 stock in DMSO, stored at −20° C.
Positive control: 10 mM […] in DMSO, stored at −20° C.
(§5) Prepare Biotinylated IWR2 stock solution (3.33× stock) for TOTL and cpd wells: 200 nM Biotin-IWR2 in 5% DMSO/AB1b buffer
(§6) Prepare POSITIVE CONTROL well stock solution (3.33× stock): 200 nM XAV939 in 200 nM Biotin-IWR2/5% DMSO/AB1b buffer
(§7) (Alternatively, use TNKS2 or PARP1 stock solutions.)
(§8) Prepare Eu/APC stock solution (5× stock): 3.5 nM Eu-SA/50 nM APC-His6Ab in AB2 buffer
(§9) Add 25 μL/well 1.5% DMSO/AB1c buffer in each compound well to the compound concentration at 74 μM in 8.8% DMSO/AB1c buffer or in the 2 μL DMSO CONTROL wells (BLANK, TOTAL and POSITIVE wells) in the compound plate.
(§10) Transfer 3 μL/well above solution (solution 1,2,3) to an empty assay plate (BD1536-well plate) as follows:
(§11) Transfer 3 μL/well of the above diluted compound solutions or compound dilution buffer to the above assay plate.
(§12) Add 2 μL/well of 300 nM TNKS stock solution (4) to every well in the above assay plate.
(§13) Incubate the assay plate at 26° C. for 30 minutes.
(§14) Incubate the assay plate at 26° C. for 60 minutes.
(§15) Read the assay plate immediately at excitation wavelength of 330 nm and emission wavelength of […] in time resolved fluorescence mode.
(§16) Representative compound data for assays are listed below in Table I. Values are in uM.

A further test deals with T2, tankyrase 2 (His6-TNKS2) (Homo sapiens, UniProt Q9H2K2).
T2 construct: His6-tankyrase 2 (construct: 934-1166)
T2 sequence (Q9H2K2 934-1166): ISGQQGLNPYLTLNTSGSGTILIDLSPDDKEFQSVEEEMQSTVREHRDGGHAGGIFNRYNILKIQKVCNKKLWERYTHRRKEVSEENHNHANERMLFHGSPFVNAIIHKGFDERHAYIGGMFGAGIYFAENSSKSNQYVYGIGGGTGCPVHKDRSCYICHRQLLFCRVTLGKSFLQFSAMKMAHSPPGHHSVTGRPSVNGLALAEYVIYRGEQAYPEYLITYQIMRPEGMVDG
The experiment in a line: μHTS-TNKS-IWR2 TR-FRET binding assay with His6-TNKS2 in place of TNKS1. The conditions noted are these: Table I. How it is done:
as §1, §2, §3, §4
Positive control: 10 mM XAV 939 in DMSO, stored at −20° C.
as §5, §6, §7, §8, §9, §10, §11, §12, §13, §14, §15, §16
For orientation: In TR-FRET formats the signal depends on donor and acceptor labels being close together.

The target in the next test is T3, Tankyrase 1 (TNKS1) (Homo sapiens, UniProt O95271).
T3 construct: construct: 1088-1327, 1266M
T3 sequence (O95271 1088-1327): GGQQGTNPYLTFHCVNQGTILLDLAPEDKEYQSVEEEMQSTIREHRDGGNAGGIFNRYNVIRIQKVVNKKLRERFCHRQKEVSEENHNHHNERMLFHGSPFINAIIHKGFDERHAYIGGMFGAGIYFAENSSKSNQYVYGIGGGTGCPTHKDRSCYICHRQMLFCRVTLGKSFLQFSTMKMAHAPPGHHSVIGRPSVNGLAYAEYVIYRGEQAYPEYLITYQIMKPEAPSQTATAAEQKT
Description: μHTS-TNKS-IWR2 TR-FRET binding assay (TNKS1). How it is done:
as §1, §2
Reagents and Stock Solutions
as §4
Assay buffer 1a (AB 1a) for TNKS dilution: 50 mM Tris, pH 7.4, 100 mM sodium chloride solution, 1 mM magnesium chloride solution, 1 mM DL-dithiothreitol solution, 0.2 mg/mL bovine serum albumin solution, 0.025% NP-40.
Assay buffer 1b (AB 1b) for Biotin-IWR2 dilution: 50 mM Tris, pH 7.4, 100 mM sodium chloride solution, 1 mM magnesium chloride solution, 1 mM DL-dithiothreitol solution, 0.2 mg/mL bovine serum albumin solution, 0.05% NP-40
Assay buffer 1c (AB 1c) for compound dilution: 50 mM Tris, pH 7.4, 100 mM sodium chloride solution, 1 mM magnesium chloride solution, 1 mM DL-dithiothreitol solution, 0.2 mg/mL bovine serum albumin solution
Assay buffer 2 (AB2) for Eu/APC: 50 mM Tris, pH 7.4, 100 mM sodium chloride solution, 1 mM magnesium chloride solution, 0.2 mg/mL bovine serum albumin solution
Reagent Stock Solution Preparation
Prepare BLANK well stock solution: 5% DMSO/AB1b buffer
Prepare TNKS1 stock solution (5× stock): 300 nM TNKS in AB1a buffer
as §10
TOTL and cpd wells: Solution 1 (Biotin-IWR2):
BLNK wells: Solution 2 (No Biotin-IWR2):
POSITIVE CONTROL wells: Solution 3 (Biotin-IWR2+XAV939)
as §11, §12
Centrifuge the assay plate at 2100 rpm for 2 minutes.
as §13, §14

T1 sequence (P09874 whole entry): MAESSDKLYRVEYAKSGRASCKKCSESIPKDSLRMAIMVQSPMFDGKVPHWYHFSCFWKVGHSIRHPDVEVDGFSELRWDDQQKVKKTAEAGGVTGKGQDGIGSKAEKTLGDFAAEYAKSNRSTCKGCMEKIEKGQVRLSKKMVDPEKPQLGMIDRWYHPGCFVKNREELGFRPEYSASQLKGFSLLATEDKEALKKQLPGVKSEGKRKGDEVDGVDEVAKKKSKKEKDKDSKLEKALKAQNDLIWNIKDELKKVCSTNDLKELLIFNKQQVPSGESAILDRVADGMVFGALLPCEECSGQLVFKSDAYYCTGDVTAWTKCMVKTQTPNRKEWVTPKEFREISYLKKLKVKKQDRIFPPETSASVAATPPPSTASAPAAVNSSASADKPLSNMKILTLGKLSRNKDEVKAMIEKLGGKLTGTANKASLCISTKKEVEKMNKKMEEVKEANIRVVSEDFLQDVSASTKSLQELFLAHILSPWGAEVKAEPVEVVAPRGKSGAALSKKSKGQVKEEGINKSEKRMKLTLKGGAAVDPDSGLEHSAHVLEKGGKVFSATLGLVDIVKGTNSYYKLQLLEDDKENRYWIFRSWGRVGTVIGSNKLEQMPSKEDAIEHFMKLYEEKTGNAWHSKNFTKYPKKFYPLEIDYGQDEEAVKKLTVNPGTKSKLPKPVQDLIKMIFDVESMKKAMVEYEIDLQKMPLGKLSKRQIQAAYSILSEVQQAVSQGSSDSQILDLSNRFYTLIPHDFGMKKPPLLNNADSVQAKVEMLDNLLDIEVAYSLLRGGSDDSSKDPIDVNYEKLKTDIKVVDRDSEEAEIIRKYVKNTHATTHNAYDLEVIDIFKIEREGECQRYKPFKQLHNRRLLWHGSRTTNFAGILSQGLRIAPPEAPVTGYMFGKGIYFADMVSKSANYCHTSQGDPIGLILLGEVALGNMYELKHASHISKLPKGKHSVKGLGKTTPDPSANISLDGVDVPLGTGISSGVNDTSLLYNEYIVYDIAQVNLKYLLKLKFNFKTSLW

The IC50 is the concentration at which inhibition is half-maximal. Read a low IC50 as higher potency. As for `Cn1ccc2c(=O)[nH]c(N3CCN(c4ccccc4C(F)(F)F)CC3)nc21` [Example 23, 7-Methyl-2-[4-(2-trifluoromethyl-phenyl)-piperazin-1-yl]-3,7-dihydro-pyrrolo[2,3-d]pyrimidin-4-one], the values for the IC50 (in test [1]; on tankyrase 2 (His6-TNKS2); at Tankyrase 1 (TNKS1)) were 42100 nM, 31 nM and 28 nM, respectively.
For `Cn1ccc2c(=O)[nH]c(N3CCN(c4ccc(S(C)(=O)=O)cc4F)CC3)nc21` [Example 24, 2-[4-(2-Fluoro-4-methanesulfonyl-phenyl)-piperazin-1-yl]-7-methyl-3,7-dihydro-pyrrolo[2,3-d]pyrimidin-4-one], the IC50 in test [1] came out at 1280 nM; at tankyrase 2 (His6-TNKS2), 47 nM; on Tankyrase 1 (TNKS1) it was 35 nM.
Regarding `Cn1ccc2c(=O)[nH]c(N3CCN(c4cc(C(F)(F)F)ccn4)CC3)nc21` [Example 25, 7-Methyl-2-[4-(4-trifluoromethyl-pyridin-2-yl)-piperazin-1-yl]-3,7-dihydro-pyrrolo[2,3-d]pyrimidin-4-one], the figures for the concentration for half-maximal inhibition (IC50) (in test [1]; at tankyrase 2 (His6-TNKS2); at Tankyrase 1 (TNKS1)) were 557 nM, 200 nM and 292 nM, respectively.
For `Cn1ccc2c(=O)[nH]c(N3CCN(c4ccc(Cl)c(Cl)c4)CC3)nc21` [Example 26, 2-[4-(3,4-Dichloro-phenyl)-piperazin-1-yl]-7-methyl-3,7-dihydro-pyrrolo[2,3-d]pyrimidin-4-one] the same measures were 1250 nM, 153 nM and 204 nM.
`C=CCCn1ccc2c(=O)[nH]c(N3CCN(c4ccccc4Cl)CC3)nc21` [Example 27, 7-But-3-enyl-2-[4-(2-chloro-phenyl)-piperazin-1-yl]-3,7-dihydro-pyrrolo[2,3-d]pyrimidin-4-one]: the half-maximal inhibitory concentration (IC50) is greater than 50000 nM in test [1], 6790 nM on tankyrase 2 (His6-TNKS2) and 5670 nM at Tankyrase 1 (TNKS1).
In the same order, the values of `Cn1ccc2c(=O)[nH]c(N3CCN(c4ccccc4F)CC3)nc21` [Example 28, 2-[4-(2-Fluoro-phenyl)-piperazin-1-yl]-7-methyl-3,7-dihydro-pyrrolo[2,3-d]pyrimidin-4-one] are 3280 nM, 80 nM and 40 nM.
In the same order, the values of `Cn1ccc2c(=O)[nH]c(N3CCN(c4ccccc4)CC3)nc21` [Example 29, 7-Methyl-2-(4-phenyl-piperazin-1-yl)-3,7-dihydro-pyrrolo[2,3-d]pyrimidin-4-one] are 732 nM, 45 nM and 43 nM.
Take `Cn1ccc2c(=O)[nH]c(N3CCN(c4ccccc4Cl)CC3)nc21` [Example 30, 2-[4-(2-Chloro-phenyl)-piperazin-1-yl]-7-methyl-3,7-dihydro-pyrrolo[2,3-d]pyrimidin-4-one]: the half-maximal inhibitory concentration (IC50) in test [1] was 1400 nM; on tankyrase 2 (His6-TNKS2), 33 nM; on Tankyrase 1 (TNKS1) it was 31 nM.
Regarding `Cn1ccc2c(=O)[nH]c(N3CCN(c4cnccn4)CC3)nc21` [Example 31, 7-Methyl-2-(2,3,5,6-tetrahydro-[1,2′]bipyrazinyl-4-yl)-3,7-dihydro-pyrrolo[2,3-d]pyrimidin-4-one], the IC50 in test [1] is 318 nM; at tankyrase 2 (His6-TNKS2) it was 133 nM; at Tankyrase 1 (TNKS1) it was 155 nM.
For `Cn1ccc2c(=O)[nH]c(N3CCN(c4ccc(C#N)cn4)CC3)nc21` [Example 32, 6-[4-(7-Methyl-4-oxo-4,7-dihydro-3H-pyrrolo[2,3-d]pyrimidin-2-yl)-piperazin-1-yl]-nicotinonitrile] the same measures were 229 nM, 90 nM and 129 nM.
Take `Cn1ccc2c(=O)[nH]c(N3C[C@@H]4C[C@H]3CN4c3cccc(F)c3)nc21` [Example 33, 2-[(1S,4S)-5-(3-Fluoro-phenyl)-2,5-diaza-bicyclo[2.2.1]hept-2-yl]-7-methyl-3,7-dihydro-pyrrolo[2,3-d]pyrimidin-4-one]: the half-maximal inhibitory concentration (IC50) is 1120 nM in test [1], 6080 nM at tankyrase 2 (His6-TNKS2) and 6180 nM at Tankyrase 1 (TNKS1).
Turning to `Cn1ccc2c(=O)[nH]c(N3CCN(c4c(Cl)cncc4Cl)CC3)nc21` [Example 34, 2-[4-(3,5-Dichloro-pyridin-4-yl)-piperazin-1-yl]-7-methyl-3,7-dihydro-pyrrolo[2,3-d]pyrimidin-4-one], the IC50 was determined as 1370 nM in test [1], 24 nM on tankyrase 2 (His6-TNKS2) and 25 nM on Tankyrase 1 (TNKS1).
On to `Cn1ccc2c(=O)[nH]c(N3CCN(c4ccccc4F)CC3)cc21` [Example 35, 6-[4-(2-Fluoro-phenyl)-piperazin-1-yl]-1-methyl-1,5-dihydro-pyrrolo[3,2-c]pyridin-4-one], for which the IC50 in test [1] worked out at 1630 nM; on tankyrase 2 (His6-TNKS2), 59 nM; on Tankyrase 1 (TNKS1), 51 nM.
For `CCn1ccc2c(=O)[nH]c(N3CCN(c4ccccc4F)CC3)cc21` [Example 36, 1-Ethyl-6-[4-(2-fluoro-phenyl)-piperazin-1-yl]-1,5-dihydro-pyrrolo[3,2-c]pyridin-4-one], the IC50 in test [1] was found to be 21000 nM; on tankyrase 2 (His6-TNKS2), 251 nM; on Tankyrase 1 (TNKS1), 273 nM.
For `O=c1[nH]c(-c2ccc(C(F)(F)F)cc2)nc2[nH]ccc12` [Example 37, 2-(4-Trifluoromethyl-phenyl)-3,7-dihydro-pyrrolo[2,3-d]pyrimidin-4-one] the same measures were 1130 nM, 217 nM and 110 nM.
In the same order, the values of `Cn1ccc2c(=O)[nH]c(-c3ccc(C(F)(F)F)cc3)nc21` [Example 38, 7-Methyl-2-(4-trifluoromethyl-phenyl)-3,7-dihydro-pyrrolo[2,3-d]pyrimidin-4-one] are 785 nM, 45 nM and 38 nM.
For `COc1ccc(-c2nc3c(ccn3C)c(=O)[nH]2)cc1` [Example 39, 2-(4-Methoxy-phenyl)-7-methyl-3,7-dihydro-pyrrolo[2,3-d]pyrimidin-4-one] the same measures were 854 nM, 58 nM and 54 nM.
As to `CCOc1ccc(-c2nc3c(ccn3C)c(=O)[nH]2)cn1` [Example 40, 2-(6-Ethoxy-pyridin-3-yl)-7-methyl-3,7-dihydro-pyrrolo[2,3-d]pyrimidin-4-one], the 50% inhibitory concentration (IC50) worked out at 289 nM in test [1], 109 nM on tankyrase 2 (His6-TNKS2) and 117 nM at Tankyrase 1 (TNKS1).
`Cn1ccc2c(=O)[nH]c(-c3cccnc3)nc21` [Example 41, 7-Methyl-2-pyridin-3-yl-3,7-dihydro-pyrrolo[2,3-d]pyrimidin-4-one]: the concentration for half-maximal inhibition (IC50) in test [1] was determined as 307 nM; at tankyrase 2 (His6-TNKS2), 568 nM; at Tankyrase 1 (TNKS1) it was 764 nM.
As to `Cc1ccc(-c2nc3c(ccn3C)c(=O)[nH]2)cn1` [Example 42, 7-Methyl-2-(6-methyl-pyridin-3-yl)-3,7-dihydro-pyrrolo[2,3-d]pyrimidin-4-one], the IC50 in test [1] is 166 nM; on tankyrase 2 (His6-TNKS2), 235 nM; at Tankyrase 1 (TNKS1) it was 228 nM.
For `Cn1ccc2c(=O)[nH]c(-c3ccc(C#N)cc3)nc21` [Example 43, 4-(7-Methyl-4-oxo-4,7-dihydro-3H-pyrrolo[2,3-d]pyrimidin-2-yl)-benzonitrile] the same measures were 1180 nM, 143 nM and 110 nM.
`Cn1ccc2c(=O)[nH]c(-c3ccc(C(F)(F)F)nc3)nc21` [Example 44, 7-Methyl-2-(6-trifluoromethyl-pyridin-3-yl)-3,7-dihydro-pyrrolo[2,3-d]pyrimidin-4-one]: the concentration for half-maximal inhibition (IC50) in test [1] is 93.3 nM; on tankyrase 2 (His6-TNKS2), 84 nM; at Tankyrase 1 (TNKS1), 88 nM.
